Experimental findings from patent US12565501B2, “Muscarinic acetylcholine M1 receptor antagonists” (Contineum Therapeutics, Inc., priority 2019, dated 2026) are described below.

Where only a bound is given, the exact number is not on record here.

Common to all, as to format: cell-based
In assay [1] the target is T1, human M1 receptor (Homo sapiens, UniProt P11229).
T1 sequence (P11229 1-460): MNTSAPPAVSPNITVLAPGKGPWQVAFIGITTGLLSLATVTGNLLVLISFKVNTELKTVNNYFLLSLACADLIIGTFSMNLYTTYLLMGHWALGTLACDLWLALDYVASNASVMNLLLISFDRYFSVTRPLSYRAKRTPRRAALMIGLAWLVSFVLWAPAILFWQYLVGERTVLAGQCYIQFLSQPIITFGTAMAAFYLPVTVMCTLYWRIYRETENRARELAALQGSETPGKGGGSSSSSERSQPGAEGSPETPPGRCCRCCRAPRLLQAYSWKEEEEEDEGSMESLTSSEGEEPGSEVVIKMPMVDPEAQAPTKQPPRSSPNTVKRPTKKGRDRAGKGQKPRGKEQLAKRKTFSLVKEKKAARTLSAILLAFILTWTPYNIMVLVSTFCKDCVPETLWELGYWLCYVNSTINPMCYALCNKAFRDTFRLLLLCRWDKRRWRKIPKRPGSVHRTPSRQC
As to the kind of experiment: In vitro functional assay of muscarinic acetylcholine receptor activity (aequorin calcium flux, reversal of EC80 acetylcholine response). Conditions: CHO-K1 cells stably expressing human M1 receptor with aequorin; acetylcholine at EC80; calcium flux (luminescence); read-out: M1 IC50. An outline of the steps: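 Antagonist mode: compound (final 0.1% DMSO) and coelenterazine-loaded M1/aequorin CHO-K1 cells incubated 30 min in the dark before EC80 acetylcholine addition. Calcium flash integrated as 40 s luminescence AUC; IC50 derived from dose-response curves.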
A general note: Calcium assays in cells follow changes in intracellular calcium, usually with a dye or a luminescent sensor.

For assay [2], the target named is T2, human M2 receptor (Homo sapiens, UniProt P08172).
T2 sequence (P08172 1-466): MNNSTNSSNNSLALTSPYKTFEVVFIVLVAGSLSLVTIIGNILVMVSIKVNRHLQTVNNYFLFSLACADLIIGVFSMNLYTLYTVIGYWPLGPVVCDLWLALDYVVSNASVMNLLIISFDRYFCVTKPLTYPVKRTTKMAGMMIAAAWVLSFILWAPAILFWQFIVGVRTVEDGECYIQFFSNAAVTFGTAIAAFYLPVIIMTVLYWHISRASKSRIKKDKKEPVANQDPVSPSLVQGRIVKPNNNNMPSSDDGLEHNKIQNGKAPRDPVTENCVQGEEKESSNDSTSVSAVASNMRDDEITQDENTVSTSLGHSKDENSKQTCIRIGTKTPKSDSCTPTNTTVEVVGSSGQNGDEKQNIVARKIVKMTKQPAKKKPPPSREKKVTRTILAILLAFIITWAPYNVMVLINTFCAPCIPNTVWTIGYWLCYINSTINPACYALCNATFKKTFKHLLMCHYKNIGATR
Briefly: In vitro functional assay, reversal of EC80 acetylcholine response in CHO-K1 aequorin cells. As to the method:
(§1) CHO-K1 cells stably expressing human M1 receptor with aequorin (Perkin Elmer) were grown in F12 media (Gibco) containing 10% FBS (ATCC), 0.4 mg/mL geneticin (Sigma-Aldrich) and 0.25 mg/mL Zeocin (Invitrogen). Cells were grown as per the manufacturer's protocol. For compound testing, cells were grown to confluency and detached gently with Accutase (Sigma-Aldrich) followed by centrifugation for 5 min at 150× g. Cells were then re-suspended in assay buffer (i.e. DMEM/F-12 HEPES without phenol red (Invitrogen) with 0.1% BSA (Sigma-Aldrich)) at a density of 5×10^6 cells/ml. Under sterile conditions, 5 μM coelenterazine (Invitrogen) was added to the cells, mixed, then incubated at room temperature protected from light, with gentle agitation, for 4 h.
(§2) Primary compound plates were prepared in 100% DMSO in opaque 96-well plates (VWR) and serially diluted in half log increments. Secondary compound plates were prepared at 3× concentration in assay buffer. Compounds were added to white, clear bottom tissue culture treated 96-well plates (Fisher Scientific). Coelenterazine-loaded cells were then added at 5×10^5 cells/well.
(§3) Compounds and cells were incubated at room temperature for 30 min in the dark. Acetylcholine at the EC80 concentration was added and calcium flux measured using a FlexStation 3 (Molecular Devices). Sigmoidal dose-response curves were generated by measuring luminescence over 40 sec and calculating the area under the curve. Dose response curves and IC50 values were generated using Prism (GraphPad). Compounds were tested at a final concentration range of 100 μM to […] in 0.1% DMSO.
(§4) CHO-K1 cells stably expressing human M2, M3 and M4 receptors, respectively, with aequonin (Perkin Elmer) were used to assess a test compound's ability to dose-dependently reverse the EC80 acetylcholine response. The IC50 of the compounds was calculated from the dose response curve.

Assay [3] has as its target human M3 receptor (Homo sapiens, UniProt P20309). The description is as above. The protocol: as §1, §2, §3, §4
The target of assay [4] is T3, human M4 receptor (Homo sapiens, UniProt P08173).
T3 sequence (P08173 1-479): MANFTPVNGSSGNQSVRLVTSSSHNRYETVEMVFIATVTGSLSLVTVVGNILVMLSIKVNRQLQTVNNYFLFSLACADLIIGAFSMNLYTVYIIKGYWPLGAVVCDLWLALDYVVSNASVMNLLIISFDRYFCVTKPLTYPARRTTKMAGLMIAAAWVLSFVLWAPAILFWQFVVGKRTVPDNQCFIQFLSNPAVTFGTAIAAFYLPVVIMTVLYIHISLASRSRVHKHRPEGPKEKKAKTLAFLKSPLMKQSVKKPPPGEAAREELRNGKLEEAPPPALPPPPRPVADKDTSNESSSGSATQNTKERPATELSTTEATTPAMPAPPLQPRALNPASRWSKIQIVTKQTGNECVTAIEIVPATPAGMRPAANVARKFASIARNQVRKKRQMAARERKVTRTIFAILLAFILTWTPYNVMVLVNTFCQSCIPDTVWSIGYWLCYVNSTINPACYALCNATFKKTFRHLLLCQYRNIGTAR
The assay is described as above. The protocol:
as §1, §2, §3, §4

As usually defined, the IC50 is the concentration that gives 50% inhibition.

human M3 receptor, sequence (P20309 whole entry): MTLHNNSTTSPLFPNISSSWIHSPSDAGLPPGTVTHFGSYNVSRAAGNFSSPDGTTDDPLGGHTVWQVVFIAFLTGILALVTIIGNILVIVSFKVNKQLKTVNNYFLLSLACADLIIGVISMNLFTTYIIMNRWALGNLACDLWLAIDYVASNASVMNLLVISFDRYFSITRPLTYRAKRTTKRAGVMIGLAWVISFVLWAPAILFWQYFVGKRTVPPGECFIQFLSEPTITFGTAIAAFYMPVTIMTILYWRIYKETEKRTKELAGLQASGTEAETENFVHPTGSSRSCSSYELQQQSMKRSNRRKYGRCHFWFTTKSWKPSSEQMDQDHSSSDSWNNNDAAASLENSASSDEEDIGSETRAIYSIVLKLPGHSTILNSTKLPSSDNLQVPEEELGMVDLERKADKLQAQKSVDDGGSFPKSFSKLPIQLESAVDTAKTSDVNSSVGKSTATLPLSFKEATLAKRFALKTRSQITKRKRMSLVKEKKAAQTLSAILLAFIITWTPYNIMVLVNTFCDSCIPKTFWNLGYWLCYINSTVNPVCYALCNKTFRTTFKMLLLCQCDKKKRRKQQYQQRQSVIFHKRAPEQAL

For `N#Cc1ccc(N2C3CCC2CN(C(=O)CCNC2(c4ccc(F)c(F)c4)CC2)C3)nc1` [Example 1, 6-(3-(3-((1-(3,4-difluorophenyl)cyclopropyl)amino)propanoyl)-3,8-diazabicyclo[3.2.1]octan-8-yl)nicotinonitrile], the half-maximal inhibitory concentration (IC50) is below 0.01 µM in assay [1], 0.1 to 1 µM in assay [2], 1 to 10 µM in assay [3] and 0.1 to 1 µM in assay [4].

Consider `N#Cc1ccc(N2C3CCC2CN(C(=O)CNC2(c4ccc(F)cc4F)CC2)C3)nc1` [Example 59, 6-(3-((1-(2,4-difluorophenyl)cyclopropyl)glycyl)-3,8-diazabicyclo[3.2.1]octan-8-yl)nicotinonitrile], for which the IC50 in assay [1] is below 0.01 µM; in assay [2] it was 1 to 10 µM; in assay [3] it was 1 to 10 µM; in assay [4], 1 to 10 µM.

Regarding `C[C@H](NCC(=O)N1CC2CCC(C1)N2c1ccc(C#N)cn1)c1ccc(F)cc1F` [Example 87, 6-(3-(((S)-1-(2,4-difluorophenyl)ethyl)glycyl)-3,8-diazabicyclo[3.2.1]octan-8-yl)nicotinonitrile], the IC50 in assay [1] was below 0.01 µM; in assay [2] it was 1 to 10 µM; in assay [3], 1 to 10 µM; in assay [4] it was 1 to 10 µM.

Take `COc1cc(C2(NCC(=O)N3CC4CCC(C3)N4c3ccc(C#N)cn3)CCC2)ccn1` [Example 118, 6-(3-((1-(2-methoxypyridin-4-yl)cyclobutyl)glycyl)-3,8-diazabicyclo[3.2.1]octan-8-yl)nicotinonitrile]: the IC50 in assay [1] is 0.01 to 0.1 µM; in assay [2], 1 to 10 µM; in assay [3] it was 1 to 10 µM; in assay [4], 0.1 to 1 µM.

In the case of `COc1cc(C(F)(F)CCC(=O)N2CC3CCC(C2)N3c2ccc(C#N)cn2)ccn1` [Example 138, 6-(3-(4,4-difluoro-4-(2-methoxypyridin-4-yl)butanoyl)-3,8-diazabicyclo[3.2.1]octan-8-yl)nicotinonitrile], the IC50 in assay [1] is below 0.01 µM; in assay [2], 1 to 10 µM; in assay [3] it was 0.1 to 1 µM; in assay [4] it was 0.1 to 1 µM.

Take `COc1ccnc(C(F)(F)CCC(=O)N2CC3CCC(C2)N3c2ccc(C#N)cn2)c1` [Example 147, 6-(3-(4,4-difluoro-4-(4-methoxypyridin-2-yl)butanoyl)-3,8-diazabicyclo[3.2.1]oxtan-8-yl)nicotinonitrile]: the IC50 is below 0.01 µM in assay [1], 1 to 10 µM in assay [2], 0.1 to 1 µM in assay [3] and 0.1 to 1 µM in assay [4].

With `N#Cc1ccc(N2C3CCC2CN(C(=O)CCC(F)(F)c2cccn4ncnc24)C3)nc1` [Example 158, 6-(3-(4-([1,2,4]triazolo[1,5-a]pyridin-8-yl)-4,4-difluorobutanoyl)-3,8-diazabicyclo[3.2.1]octan-8-yl)nicotinonitrile], the IC50 in assay [1] was below 0.01 µM; in assay [2] it was 1 to 10 µM; in assay [3], 0.1 to 1 µM; in assay [4] it was 0.1 to 1 µM.

Take `N#Cc1ccc(N2C3CCC2CN(C(=O)COC2(c4cc(F)cc(F)c4)CC2)C3)nc1` [Example 210, 6-(3-(2-(1-(3,5-difluorophenyl)cyclopropoxy)acetyl)-3,8-diazabicyclo[3.2.1]octan-8-yl)nicotinonitrile]: the results for the IC50 in assay [1], in assay [2] and in assay [3] were 0.01 to 0.1 µM, above 1 µM and 1 to 10 µM, respectively.

Take `N#Cc1ccc(N2C3CCC2CN(C(=O)COC2(c4ncccc4F)CCC2)C3)nc1` [Example 250, 6-(3-(2-(1-(3-fluoropyridin-2-yl)cyclobutoxy)acetyl)-3,8-diazabicyclo[3.2.1]octan-8-yl)nicotinonitrile]: the values for the IC50 in assay [1], in assay [2] and in assay [3] were 0.1 to 1 µM, above 1 µM and 1 to 10 µM, respectively.

Regarding `C[C@@H](OCCC(=O)N1C[C@H]2CC[C@@H](C1)N2c1ccc(C#N)cn1)c1ccccc1` [Example 304, 6-(3-(3-((R)-1-phenylethoxy)propanoyl)-3,8-diazabicyclo[3.2.1]octan-8-yl)nicotinonitrile], the IC50 is 0.01 to 0.1 µM in assay [1], 1 to 10 µM in assay [2] and above 1 µM in assay [3].
